Laboratory results from PubChem BioAssay AID276 (DTP/NCI, 2004).
Where “and” joins values, the source holds several entries; their conditions need not be identical. Identical values can stand only once. Toxic doses and inconclusive results are not listed.

Test system: B6C3F1 mice, Lewis lung carcinoma iv, survival T/C
Assay: NCI In Vivo Anticancer Drug Screen. Data for tumor model Lewis Lung Carcinoma (intravenous) in B6C3F1 mice
Conditions: endpoint: median survival time, schedule: Q01DX009 (ip), higher = longer survival
In short: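 Mice carrying transplanted tumors received test compound; survival in the treated group was divided by that of the vehicle-treated control group to give the T/C value.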

[1] = dose: 6.25 mg/kg/injection, vehicle: saline with Tween-80
[2] = dose: 12.5 mg/kg/injection, vehicle: saline with Tween-80
[3] = dose: 25.0 mg/kg/injection, vehicle: saline with Tween-80
[4] = dose: 50.0 mg/kg/injection, vehicle: saline with Tween-80
[5] = dose: 100.0 mg/kg/injection, vehicle: saline with Tween-80
[6] = dose: 12.5 mg/kg/injection, vehicle: saline
[7] = dose: 25.0 mg/kg/injection, vehicle: saline
[8] = dose: 50.0 mg/kg/injection, vehicle: saline
[9] = dose: 100.0 mg/kg/injection, vehicle: saline
[10] = dose: 3.12 mg/kg/injection, vehicle: saline
[11] = dose: 200.0 mg/kg/injection, vehicle: saline

Compound: O=C(O)C(CSC(c1ccccc1)(c1ccccc1)c1ccccc1)N=Cc1cccs1 (stereo unspecified)
- T/C (dose: 12.5 mg/kg/injection, vehicle: suspension in saline): 104 % of control
- T/C (dose: 25.0 mg/kg/injection, vehicle: suspension in saline): 100 % of control
- T/C (dose: 50.0 mg/kg/injection, vehicle: suspension in saline): 105 % of control

Compound: Nc1nc2ccc(NCc3ccc(C(=O)NC(CCC(=O)O)C(=O)O)cc3)cc2c(=O)[nH]1 (stereo unspecified)
- T/C [1]: 111 % of control
- T/C [2]: 97 % of control
- T/C [3]: 100 % of control
- T/C [4]: 116 % of control
- T/C [5]: 119 % of control

Compound: Nc1nc2c(C(=O)N3CCCC3)nnn2c2ccccc12
- T/C [1]: 100 % of control
- T/C [2]: 99 % of control
- T/C [3]: 100 % of control
- T/C [4]: 107 % of control
- T/C [5]: 99 % of control

Compound: NC(=O)c1[nH]nc(C2OC(CO)C(O)C2O)c1O (stereo unspecified)
- T/C (dose: 0.31 mg/kg/injection, vehicle: saline): 91 % of control and 105 % of control
- T/C (dose: 0.62 mg/kg/injection, vehicle: saline): 98 % of control and 101 % of control
- T/C (dose: 1.25 mg/kg/injection, vehicle: saline): 120 % of control and 122 % of control
- T/C (dose: 2.5 mg/kg/injection, vehicle: saline): 122 % of control

Compound: CS(=O)(=O)CS(=O)(=O)OCCCl
- T/C [6]: 107 % of control
- T/C [7]: 120 % of control
- T/C [8]: 284 % of control
- T/C [9]: 239 % of control

Compound: C(=N/NC1=NCCN1)/c1c2ccccc2c(/C=N\NC2=NCCN2)c2ccccc12
- T/C [10]: 110 % of control
- T/C [6]: 100 % of control
- T/C [7]: 100 % of control

Compound: N#CC(=C1SCS1)[N+](=O)[O-]
- T/C (dose: 0.37 mg/kg/injection, vehicle: saline with Tween-80): 98 % of control
- T/C (dose: 0.75 mg/kg/injection, vehicle: saline with Tween-80): 107 % of control
- T/C (dose: 1.5 mg/kg/injection, vehicle: saline with Tween-80): 106 % of control
- T/C (dose: 3.0 mg/kg/injection, vehicle: saline with Tween-80): 109 % of control
- T/C (dose: 6.0 mg/kg/injection, vehicle: saline with Tween-80): 106 % of control
- T/C (dose: 12.0 mg/kg/injection, vehicle: saline with Tween-80): 92 % of control

Compound: CCCC(=O)O
- T/C [6]: 123 % of control
- T/C [7]: 109 % of control
- T/C [8]: 114 % of control
- T/C [9]: 106 % of control
- T/C [11]: 98 % of control

Compound: CC[As](=O)(O)CC
- T/C [8]: 95 % of control
- T/C [9]: 103 % of control
- T/C [11]: 103 % of control

Compound: ClCCCN1CCCCC1CCl (stereo unspecified)
- T/C (dose: 0.78 mg/kg/injection, vehicle: saline): 101 % of control
- T/C (dose: 1.56 mg/kg/injection, vehicle: saline): 108 % of control
- T/C [10]: 98 % of control
- T/C (dose: 6.25 mg/kg/injection, vehicle: saline): 101 % of control
- T/C [6]: 121 % of control

Compound: Nc1nnc[se]1
- T/C (dose: 3.12 mg/kg/injection, vehicle: saline with Tween-80): 122 % of control
- T/C [1]: 123 % of control
- T/C [2]: 123 % of control
